# Patent US7517857B2, “Immune-modulating peptide” (POSCO, priority 2002, dated 2009)
# “Also recorded” adds a separate entry of the source. Where a SMILES comes first, the peptide text is derived from it. Where no end group is shown, it is not given here. [ ]: non-standard residue; d: D form.
# Columns and labels:
# human neutrophils = experiment: Superoxide generation in human neutrophils (cytochrome c reduction); assay type: cell-based; conditions: for O^2− (nmol/10^6 cells), superoxide generation: cytochrome c reduction
# Summary of the method: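 Neutrophils isolated from donor leukocyte concentrates by dextran sedimentation, hypotonic erythrocyte lysis and lymphocyte separation gradient; 1×10^6 cells in RPMI 1640 preincubated 1 min at 37° C with 50 μM cytochrome c, then peptide added. Superoxide quantified as cytochrome c reduction, absorbance change at 550 nm over 5 min at 1-min intervals; ≥4 independent experiments.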
# FPRL1 [1] = target: T1, FPRL1 (Homo sapiens, UniProt P25090); experiment: Displacement of 125I-labeled WKYMVm binding to FPRL1 (FPRL1-expressing RBL-2H3 cells); conditions: FIG. 2B
# T1 construct: expressed in transfected cells; host or cells: RBL-2H3 (rat basophilic leukemia) cells, G418-selected
# T1 sequence (P25090 1-351): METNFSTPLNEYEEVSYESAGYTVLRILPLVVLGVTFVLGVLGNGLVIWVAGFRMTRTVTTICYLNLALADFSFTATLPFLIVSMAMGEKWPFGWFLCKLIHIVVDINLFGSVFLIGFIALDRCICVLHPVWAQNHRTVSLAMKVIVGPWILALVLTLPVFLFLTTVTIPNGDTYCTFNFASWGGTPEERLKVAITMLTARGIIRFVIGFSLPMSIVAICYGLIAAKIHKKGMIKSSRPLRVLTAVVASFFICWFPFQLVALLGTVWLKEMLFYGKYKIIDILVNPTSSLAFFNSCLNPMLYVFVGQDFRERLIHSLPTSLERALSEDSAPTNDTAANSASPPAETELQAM
# Experimental: From the finding that some of the peptides (WKGMVm (SEQ ID NO: 1), WKRMVm (SEQ ID NO: 11), D-Met^6 substituted peptides) could not induce a cytosolic calcium increase, it was checked whether the peptides can bind to FPR or not. Displacement of ^125I-labeled WKYMVm binding to FPR or FPRL1 by the peptides was monitored. FPR-expressing RBL-2H3 cells were incubated with [^125I] WKYMVm in the absence or presence of increasing amounts of unlabeled WKYMVm or the peptides of SEQ ID NOs: 1 to 24.
# A ligand binding analysis was performed as modified from the previous report (16). The radioiodinated WKYMVm (^125I-labeled) was purchased from NEN Lifesciences (Boston, Mass.). Briefly, FPR- or FPRL1-expressing RBL-2H3 cells were seeded into 1×10^5 cells per well of a 24-well plate and cultured overnight. After blocking the cells with a blocking buffer (33 mM HEPES, pH 7.5, 0.1% BSA in RPMI) for 2 hr, a single concentration of ^125I-labeled WKYMVm was added to cells with a binding buffer (PBS containing 0.1% BSA) in the absence or presence of 50 μM unlabelled peptides and incubated for 3 hr at 4° C. with continuous shaking. Then the samples were washed 5 times with ice-cold binding buffer, and 200 μl of lysis buffer (20 mM Tris, pH 7.5, 1% Triton X-100) was added to each well. After 20 min of lysis at room temperature, the lysates were collected. Bound ^125I-labeled WKYMVm was measured for radioactivity for a γ-ray counter.
# FPR = target: T2, FPR (Homo sapiens, UniProt P21462); experiment: [Ca2+]i increase in FPR-expressing RBL-2H3 cells (fura-2); assay type: cell-based; conditions: for EC50 (nM), intracellular calcium increase: fura-2 loaded
# T2 construct: expressed in transfected cells; host or cells: RBL-2H3 (rat basophilic leukemia) cells, G418-selected
# T2 sequence (P21462 1-350): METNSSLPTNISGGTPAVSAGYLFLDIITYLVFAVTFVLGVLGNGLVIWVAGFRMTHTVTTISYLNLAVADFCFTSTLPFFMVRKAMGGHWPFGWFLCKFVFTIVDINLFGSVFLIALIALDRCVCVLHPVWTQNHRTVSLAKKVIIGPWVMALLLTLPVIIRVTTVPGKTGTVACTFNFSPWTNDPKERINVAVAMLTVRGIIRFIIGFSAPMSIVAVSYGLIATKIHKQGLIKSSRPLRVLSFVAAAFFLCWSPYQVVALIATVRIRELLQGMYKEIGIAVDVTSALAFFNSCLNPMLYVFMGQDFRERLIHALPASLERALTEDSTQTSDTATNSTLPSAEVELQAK
# FPRL1 [2] = target: T1, FPRL1; experiment: Exocytosis: β-hexosaminidase secretion in FPRL1-expressing RBL-2H3 cells; assay type: cell-based; conditions: for granule secretion / β-hexosaminidase release (words): FPRL1 cells, 10 μM of each peptide (WKYMVm also various concentrations)
# Experimental: Granule secretion is one of the most important function of mast cells (20). The effect of WKYMVm on granule secretion was checked by measuring β-hexosaminidase secretion as described above (18). Briefly, RBL-2H3 cells (2×10^5/well) expressing FPR or FPRL1 were cultured overnight in a 24-well tissue culture plate. The cells were washed twice with Tyrode's buffer (137 mM NaCl, 12 mM NaHCO3, 5.6 mM glucose, 2.7 mM KCl, 1 mM CaCl2, 0.5 mM MgCl2, 0.4 mM NaH2PO4, 0.1g/100 ml BSA, and 25 mM HEPES, pH 7.4) and stimulated with each peptide. Various concentrations of WKYMVm were treated in FPR- or FPRL1-expressing RBL-2H3 cells (FIG. 5A). 1 μM of WKYMVm was used to stimulate two cell lines in the absence or presence of 10 μM BAPTA/AM (FIG. 5B). The reaction was terminated 20 min after stimulation by placing the plate on ice. Secretion of β-hexosaminidase into the medium was determined by incubating 50 μl of supernatant or cell lysate with 25 μl of 5 mM p-nitrophenyl-N-acetyl-β-D-glucosamide in 0.1 M sodium citrate buffer (pH 3.8) at 37° C. for 2 hr. At the end of the incubation, 50 μl of 0.4 M Na2CO3 were added. Absorbance was monitored at 405 nm. Data are means ±S.E. of a single representative of three experiments performed in triplicate. Values (means ±S.E.) were expressed as a percent of total β-hexosaminidase present in the cells.
# 10 μM of each peptide was treated in FPR- (FIG. 6A) or FPRL1-expressing RBL-2H3 cells (FIG. 6B). The peptide-induced secretion of β-hexosaminidase was determined as above. Data are means ±S.E. of a single representative of three experiments performed in triplicate.
Molecule,"O^2− (nmol/10^6 cells), superoxide generation (human neutrophils; peptide 100 nM)","O^2− (nmol/10^6 cells), superoxide generation (human neutrophils; peptide 10 μM)",inhibition of [^125I] WKYMVm binding (FPRL1 [1]),[Ca^2+]i increasing activity (FPR),"EC50 (nM), intracellular calcium increase (FPR)",granule secretion / β-hexosaminidase release (words) (FPRL1 [2]),concentration showing the maximal activity on superoxide generation (human neutrophils; data not shown),"O^2− (nmol/10^6 cells), superoxide generation (human neutrophils; peptide 100 nM, listed as wkymvm-NH2)","O^2− (nmol/10^6 cells), superoxide generation (human neutrophils; peptide 10 μM, listed as wkymvm-NH2)",concentration showing maximal [Ca^2+]i increase activity (FPR; data not shown),concentration showing maximal β-hexosaminidase release (FPRL1 [2]; FPRL1-expressing RBL-2H3 cells),granule secretion / β-hexosaminidase release (words) (FPRL1 [2]; listed as WKYMVm),granule secretion / β-hexosaminidase release (words) (FPRL1 [2]; listed as wkymvm)
"CSCC[C@H](NC(=O)CNC(=O)[C@H](CCCCN)NC(=O)[C@@H](N)Cc1c[nH]c2ccccc12)C(=O)N[C@H](C(=O)N[C@H](CCSC)C(N)=O)C(C)C [WKGMVm-NH2, Trp-Lys-Gly-Met-Val-D-Met-NH2] (H-WKGMV[dM]-NH2; N-terminus assumed)",14.2 ± 3.42 nmol/10^6 cells,37.6 ± 4.57 nmol/10^6 cells,inhibited binding of [^125I] WKYMVm in a concentration-dependent manner,did not effect a [Ca^2+]i increase until 20 μM treatment,inactive,stimulated granule secretion,–,–,–,–,–,–,–
"CSCC[C@H](NC(=O)[C@H](Cc1ccc(O)cc1)NC(=O)[C@H](CCCCN)NC(=O)[C@@H](N)Cc1c[nH]c2ccccc12)C(=O)N[C@H](C(=O)N[C@H](CCSC)C(N)=O)C(C)C [WKYMVm-NH2, Trp-Lys-Tyr-Met-Val-D-Met-NH2, reference compound]",37.3 ± 6.94 nmol/10^6 cells,39.0 ± 3.58 nmol/10^6 cells,inhibited binding of [^125I] WKYMVm in a concentration-dependent manner,–,inactive,–,100 nM,0 nmol/10^6 cells,0 nmol/10^6 cells,around 300 nM,10 nM,caused β-hexosaminidase release in a concentration-dependent manner; also recorded: stimulated granule secretion,"but not fMLF or wkymvm, stimulated granule secretion"
"WKYMVE-NH2 [WKYMVE-NH2, Trp-Lys-Tyr-Met-Val-Glu-NH2]",5.0 ± 0.43 nmol/10^6 cells,33.6 ± 6.43 nmol/10^6 cells,–,–,inactive,stimulated granule secretion,–,–,–,–,–,–,–
"CSCC[C@H](NC(=O)[C@H](CCCNC(=N)N)NC(=O)[C@H](CCCCN)NC(=O)[C@@H](N)Cc1c[nH]c2ccccc12)C(=O)N[C@H](C(=O)N[C@H](CCSC)C(N)=O)C(C)C [WKRMVm-NH2, Trp-Lys-Arg-Met-Val-D-Met-NH2] (H-WKRMV[dM]-NH2; N-terminus assumed)",15.9 ± 2.48 nmol/10^6 cells,41.7 ± 8.32 nmol/10^6 cells,inhibited binding of [^125I] WKYMVm in a concentration-dependent manner,–,inactive,stimulated granule secretion,–,–,–,–,–,–,–
"WKYMVR-NH2 [WKYMVR-NH2, Trp-Lys-Tyr-Met-Val-Arg-NH2]",16.3 ± 1.57 nmol/10^6 cells,44.8 ± 3.65 nmol/10^6 cells,–,–,inactive,stimulated granule secretion,–,–,–,–,–,–,–
